Experiments:
Test in all cases: binding to AX14596 beads (HeLa lysate, SILAC MS)
ACAD10 = biological target: T1, ACAD10 (Homo sapiens, UniProt Q6JQN1)
T1 sequence (Q6JQN1 1-1059): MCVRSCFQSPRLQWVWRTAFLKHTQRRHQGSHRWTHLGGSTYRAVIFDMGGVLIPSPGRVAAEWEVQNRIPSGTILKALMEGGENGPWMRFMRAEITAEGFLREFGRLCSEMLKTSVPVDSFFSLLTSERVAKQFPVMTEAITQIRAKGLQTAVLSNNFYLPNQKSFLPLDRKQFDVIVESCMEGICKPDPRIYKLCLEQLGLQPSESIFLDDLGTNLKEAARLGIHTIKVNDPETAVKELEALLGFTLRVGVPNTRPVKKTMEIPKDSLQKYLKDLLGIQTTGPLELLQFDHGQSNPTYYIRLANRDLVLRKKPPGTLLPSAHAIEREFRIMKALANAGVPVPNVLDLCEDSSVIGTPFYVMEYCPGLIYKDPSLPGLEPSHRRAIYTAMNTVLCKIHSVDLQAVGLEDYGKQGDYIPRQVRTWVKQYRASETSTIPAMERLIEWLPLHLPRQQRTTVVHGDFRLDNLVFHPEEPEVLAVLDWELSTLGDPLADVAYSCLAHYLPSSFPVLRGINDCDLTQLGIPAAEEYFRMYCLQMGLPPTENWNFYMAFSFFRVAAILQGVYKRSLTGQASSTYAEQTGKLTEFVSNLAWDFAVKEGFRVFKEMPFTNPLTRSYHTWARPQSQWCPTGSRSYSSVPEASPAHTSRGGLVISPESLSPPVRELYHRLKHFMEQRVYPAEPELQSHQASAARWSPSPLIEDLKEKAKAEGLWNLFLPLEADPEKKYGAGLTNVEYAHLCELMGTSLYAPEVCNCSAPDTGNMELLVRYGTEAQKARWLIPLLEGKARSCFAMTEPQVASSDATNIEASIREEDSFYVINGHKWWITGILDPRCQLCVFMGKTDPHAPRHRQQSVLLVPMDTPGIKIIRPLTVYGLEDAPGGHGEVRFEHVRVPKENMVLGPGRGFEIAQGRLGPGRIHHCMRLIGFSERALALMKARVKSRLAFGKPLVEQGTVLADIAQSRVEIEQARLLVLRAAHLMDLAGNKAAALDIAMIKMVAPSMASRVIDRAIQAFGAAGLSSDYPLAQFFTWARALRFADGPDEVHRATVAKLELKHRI
Method: (§1) Differentially SILAC-encoded cell lysates were either incubated with the inhibitor beads displaying immobilized AX14596 or control resin devoid of ligand. In parallel, the supernatant from the first binding step was subjected to a second incubation with the AX14596 resin (FIG. 4). The resulting three elution fractions were combined, resolved by gel electrophoresis, proteolytically digested and the relative abundance of the retained proteins quantified. Proteins showing considerable binding to the control resin were identified as non-specific interactors and therefore not considered further. […] These target-specific ratios were similar in “label switch” experiments (FIGS. 6a and 6c). The binding equilibrium was determined in parallel control SILAC experiments as well as the excess of the immobilized compound over its cellular targets, the excess preferably being a molar excess (FIG. 7 and FIG. 8).
(§2) Cysteine carbamidomethylation was set as a fixed modification and N-acetyl protein and oxidized methionine were allowed as variable modifications. Spectra that were determined to result from heavy labeled peptides in the pre-search detection of SILAC partners by MaxQuant were searched with the fixed modifications Lys^4, Lys^8, Arg^6 and Arg^10, whereas MS/MS spectra for which no SILAC state could be assigned before database searching were searched with Lys^4, Lys^8, Arg^6 and Arg^10 as variable modifications. The mass tolerance was set to 5 ppm for monoisotopic precursor ions and to 0.5 Da for MS/MS peaks. The minimum peptide length was set to 6 amino acids and up to three missed cleavages and three isotopically labeled amino acids were permitted per peptide. The accepted false discovery rate (FDR) was 1% for the proteins and peptides. The cut-off for the posterior error probability (PEP) of peptides was set to 10%. Peptide PEPs were determined by generating Mascot score and peptide-length-dependent histograms for both the forward and the reverse hits and then deriving the probability of a false identification for a given top-scoring peptide using Bayes' theorem. The PEPs of peptides belonging to the same proteins were then multiplied. Each peptide sequence was considered only once with the lowest PEP determined in case of multiple sequencing of the same isotopic pattern or of peptide species with different SILAC, charge or modification states. Proteins were then sorted according to their products of their peptide PEPs and included until a FDR of 1% was reached according to the fraction of reverse proteins contained in the protein list. In addition to the FDR threshold applied for protein identification, proteins were only included when they were identified with at least two peptides (of which one was required to be unique for the protein) and quantified if at least on quantifiable SILAC pair was associated with them. Outliers were not removed as protein ratios were calculated as the median instead of the average of all peptide ratios. For peptides shared among different identified proteins, SILAC ratios were only considered for the ratio of the protein identified with the highest number of unique peptides. Protein ratios for the different in vitro association experiments were corrected for the initial SILAC pooling ratio, which was determined from the median of protein ratios in pooled SILAC-encoded cell extracts.

EphB4 = EphB4 (Homo sapiens, UniProt P54760)
Sequence of EphB4 (P54760 16-987): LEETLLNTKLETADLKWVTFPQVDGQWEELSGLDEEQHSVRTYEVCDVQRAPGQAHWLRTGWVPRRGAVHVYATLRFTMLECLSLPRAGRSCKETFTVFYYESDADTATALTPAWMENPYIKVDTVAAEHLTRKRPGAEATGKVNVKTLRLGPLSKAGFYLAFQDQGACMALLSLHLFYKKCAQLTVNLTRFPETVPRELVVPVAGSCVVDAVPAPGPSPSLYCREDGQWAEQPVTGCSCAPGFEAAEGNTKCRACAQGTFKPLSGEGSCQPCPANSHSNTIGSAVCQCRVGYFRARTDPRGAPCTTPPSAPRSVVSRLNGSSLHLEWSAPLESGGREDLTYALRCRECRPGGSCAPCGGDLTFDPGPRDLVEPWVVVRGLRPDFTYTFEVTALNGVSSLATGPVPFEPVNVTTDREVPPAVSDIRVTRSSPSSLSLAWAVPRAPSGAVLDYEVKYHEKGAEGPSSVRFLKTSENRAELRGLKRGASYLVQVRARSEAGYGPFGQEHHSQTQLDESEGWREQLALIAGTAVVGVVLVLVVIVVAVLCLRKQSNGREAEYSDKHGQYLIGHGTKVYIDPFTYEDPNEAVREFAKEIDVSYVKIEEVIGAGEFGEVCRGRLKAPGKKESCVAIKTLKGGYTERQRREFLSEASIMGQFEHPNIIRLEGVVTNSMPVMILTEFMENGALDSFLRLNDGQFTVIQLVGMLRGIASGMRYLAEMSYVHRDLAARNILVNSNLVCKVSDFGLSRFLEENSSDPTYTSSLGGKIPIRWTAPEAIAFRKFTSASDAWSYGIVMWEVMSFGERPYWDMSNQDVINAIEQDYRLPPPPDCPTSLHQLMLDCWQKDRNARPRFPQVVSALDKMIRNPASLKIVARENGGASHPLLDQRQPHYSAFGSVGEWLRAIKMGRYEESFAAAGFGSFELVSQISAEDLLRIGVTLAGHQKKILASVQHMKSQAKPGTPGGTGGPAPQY
Method: as §1, §2

LYN = LYN (Homo sapiens, UniProt P07948)
Sequence of LYN (P07948 whole entry): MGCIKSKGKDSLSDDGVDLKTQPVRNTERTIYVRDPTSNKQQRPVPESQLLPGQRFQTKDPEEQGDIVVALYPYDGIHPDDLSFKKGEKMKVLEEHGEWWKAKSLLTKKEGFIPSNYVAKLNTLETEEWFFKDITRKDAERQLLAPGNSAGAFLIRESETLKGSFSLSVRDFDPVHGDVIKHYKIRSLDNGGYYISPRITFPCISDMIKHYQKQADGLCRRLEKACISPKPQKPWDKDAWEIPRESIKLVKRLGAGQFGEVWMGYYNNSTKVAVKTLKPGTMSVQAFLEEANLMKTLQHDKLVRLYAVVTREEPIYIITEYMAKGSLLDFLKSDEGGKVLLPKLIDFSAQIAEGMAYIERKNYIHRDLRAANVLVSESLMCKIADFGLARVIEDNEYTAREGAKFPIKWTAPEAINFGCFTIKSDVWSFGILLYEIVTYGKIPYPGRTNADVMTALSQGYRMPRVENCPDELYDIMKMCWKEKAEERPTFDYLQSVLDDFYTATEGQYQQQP
Method: as §1, §2

PKD3 (PRKD3) = biological target: T2, PKD3 (PRKD3) (Homo sapiens, UniProt O94806)
T2 construct: endogenous in cells; host or cells: HeLa S3
T2 sequence (O94806 whole entry): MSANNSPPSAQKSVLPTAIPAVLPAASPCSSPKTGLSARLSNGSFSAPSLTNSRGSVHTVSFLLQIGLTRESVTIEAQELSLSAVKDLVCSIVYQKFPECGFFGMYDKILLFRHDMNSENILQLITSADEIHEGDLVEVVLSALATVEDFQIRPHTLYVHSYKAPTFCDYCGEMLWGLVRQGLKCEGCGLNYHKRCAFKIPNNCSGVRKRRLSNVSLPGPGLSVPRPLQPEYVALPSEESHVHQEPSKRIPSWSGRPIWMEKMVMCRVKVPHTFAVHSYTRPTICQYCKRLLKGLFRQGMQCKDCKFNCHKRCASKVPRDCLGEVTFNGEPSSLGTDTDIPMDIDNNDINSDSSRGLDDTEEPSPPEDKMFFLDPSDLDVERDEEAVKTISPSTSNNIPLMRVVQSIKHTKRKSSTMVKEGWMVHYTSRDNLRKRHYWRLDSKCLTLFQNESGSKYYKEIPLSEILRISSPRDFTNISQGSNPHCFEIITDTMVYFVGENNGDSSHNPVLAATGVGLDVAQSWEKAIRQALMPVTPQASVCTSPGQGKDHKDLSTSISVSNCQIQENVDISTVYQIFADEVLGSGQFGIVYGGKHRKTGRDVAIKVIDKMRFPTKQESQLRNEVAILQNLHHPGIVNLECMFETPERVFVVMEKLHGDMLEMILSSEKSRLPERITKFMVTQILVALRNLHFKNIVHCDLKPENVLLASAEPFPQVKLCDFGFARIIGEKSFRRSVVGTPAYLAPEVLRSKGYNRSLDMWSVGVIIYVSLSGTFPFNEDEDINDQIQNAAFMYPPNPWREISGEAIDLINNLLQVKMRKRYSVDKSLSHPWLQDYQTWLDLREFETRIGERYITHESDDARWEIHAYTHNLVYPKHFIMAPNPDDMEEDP
Method: as §1, §2

[1] = biological target: p38a (MAPK14, IPI00221141) (Homo sapiens, UniProt Q16539)
Sequence of p38a (MAPK14, IPI00221141) (Q16539 1-360 isoform Q16539-2): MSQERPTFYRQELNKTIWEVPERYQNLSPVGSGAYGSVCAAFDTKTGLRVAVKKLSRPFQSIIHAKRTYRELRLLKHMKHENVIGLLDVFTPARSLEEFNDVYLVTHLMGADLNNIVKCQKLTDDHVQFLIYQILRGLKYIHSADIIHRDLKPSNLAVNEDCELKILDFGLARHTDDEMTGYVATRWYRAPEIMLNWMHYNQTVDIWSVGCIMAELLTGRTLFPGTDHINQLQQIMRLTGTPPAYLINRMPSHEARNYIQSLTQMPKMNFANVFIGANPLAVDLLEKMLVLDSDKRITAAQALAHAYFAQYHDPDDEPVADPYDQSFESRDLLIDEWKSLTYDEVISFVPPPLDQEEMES
Method: as §1, §2

## COc1cc2ncnc(Nc3ccc(F)c(Cl)c3)c2cc1OCCCN [AX14596]
ACAD10
  Ki: 108 µM
  r (3 mg/1 mg lysate): 8.45
  r (5 h/2.5 h inc. time): 0.48
  rAVERAGE (2. inc/1. inc): 0.52
  rAVERAGE (control/1. inc): 0.08
EphB4
  Ki: 242 µM
  r (3 mg/1 mg lysate): 2.65
  r (5 h/2.5 h inc. time): 0.96
  rAVERAGE (2. inc/1. inc): 0.71
  rAVERAGE (control/1. inc): 0.05
EphB4; bound to AX14596 beads
  % BOUND: 29%
LYN
  Ki: 195 µM
  r (3 mg/1 mg lysate): 2.14
  r (5 h/2.5 h inc. time): 0.98
  rAVERAGE (2. inc/1. inc): 0.66
  rAVERAGE (control/1. inc): 0.07
LYN; bound to AX14596 beads
  % BOUND: 34%
PKD3 (PRKD3)
  Ki: 1510 µM
  r (3 mg/1 mg lysate): 2.49
  r (5 h/2.5 h inc. time): 1.05
  rAVERAGE (2. inc/1. inc): 0.94
  rAVERAGE (control/1. inc): 0.08
[1]
  Ki: 168 µM
  r (3 mg/1 mg lysate): 2.87
  rAVERAGE (2. inc/1. inc): 0.63
  rAVERAGE (control/1. inc): 0.03
